Measured values taken from patent US20180305345A1 (priority 2015, published 2018).

Legend:
786-0 cells = conditions: human
[1] = mouse; for Plasma stab. % remaning at 3 hrs: Balb/c, pH 7.4
physchem [2] = conditions: buffer
[3] = tested on: VSVΔ51-GFP in CT26 murine colon cancer tumors; format: cell-based, mouse
[4] = tested on: VSVΔ51-GFP in normal mouse brain, lung and spleens
[5] = tested on: oncolytic HSV-1 expressing GFP in 786-0 cancer cells; format: cell-based, human
MG1-eGFP in 786-0 cells = format: cell-based, human
[6] = tested on: ICPO-null HSV-N212eGFP in 786-0 cells; format: cell-based, human; conditions: MOI 0.01, 48 h after infection
[7] = female, Balb/c, mouse, in vivo
VSVΔ51 in 786-0 cells = format: cell-based, human
VSVΔ51 = conditions: cited from earlier work
physchem [8] = conditions: buffer, pH 7.4
[9] = tested on: VSVΔ51-FLuc in CT26 tumors; design: species or system Balb/c mice; conditions: mouse, in vivo

Row | Structure (SMILES) | LD50 (786-0 cells) [µM] | Plasma stab. % remaning at 3 hrs [1] [%] | half-life (physchem [2]) [min] | other results
1 | C#CCOC1OC(=O)C(Cl)=C1Cl (centres unmarked) [Compound 7] | 52 | 0 | < 5 | 
2 | COC1OC(=O)C(Cl)=C1Cl (centres unmarked) [Compound 6] | 73 | 0 | < 5 | 
3 | O=C1C(Cl)=C(Cl)C(O)N1Cc1ccc(C(F)(F)F)cc1 (centres unmarked) [Compound 40, 3,4-dichloro-5-hydroxy-1-(4-(trifluoromethyl)benzyl)-1H-pyrrol-2(5H)-one] | 36 | 15.3 ± 2.5 | 32 | VSVΔ51-GFP titers / replication in tumor specimens [3]: enhances replication in tumors; impact on VSVΔ51 in normal tissue specimens [4]: increases infection and replication in brain tissue
4 | O=C1C(Cl)=C(Cl)C(O)N1Cc1ccccc1 (stereo not drawn) [Compound 10, α,β-dichloro-γ-hydroxy-N-benzyl-crotonic lactam] | 67 | 19.8 ± 0.4 | 32 | growth of oncolytic HSV-1 expressing GFP [5]: increased growth; GFP counts, MG1-eGFP (MG1-eGFP in 786-0 cells): increased GFP counts; GFP counts, HSV-N212eGFP [6]: increased GFP counts; stability in the plasma assay [1]: remarkably improved stability; dose up to which well tolerated ([7]; ip): ≤ 50 mg/kg
5 | O=C1OC(c2ccccc2)C(NCc2ccccc2)=C1Cl (centres unmarked) [Compound 3] | 140 | 65.6 ± 6.5 |  | 
6 | O=C1C(Cl)=C(Cl)C(O)(c2ccccc2)N1Cc1ccccc1 (centres unmarked) [Compound 15] | 66 | 14.9 ± 7.1 | 340 | 
7 | O=C1C(Cl)=C(Cl)C(O)N1C1CC1 (centres unmarked) [Compound 25, 3,4-dichloro-1-cyclopropyl-5-hydroxy-1H-pyrrol-2(5H)-one] | 127 | 54.8 ± 3.6 | 53 | 
8 | CC(C)CNC1=C(Cl)C(=O)OC1c1ccccc1 (centres unmarked) [Compound 4] | 90 | 0 |  | 
9 | O=C1C(Cl)=C(c2ccccc2)C(O)N1Cc1ccccc1 (centres unmarked) [Compound 19] | 250 |  |  | 
10 | CC(=O)OC1C(Cl)=C(Cl)C(=O)N1Cc1ccccc1 (centres unmarked) [Compound 13] | 61 | 0 | 21 | 
11 | O=C1C(Cl)=C(Cl)C(=O)N1Cc1ccccc1 [Compound 14] | 104 | 70.2 ± 8.4 | < 5 | 
12 | O=c1[nH]n(-c2ccccc2)c(Cl)c1Cl [Compound 8] | >180 | 88.3 ± 9.3 |  | 
13 | O=C1OC(c2ccccc2)C(Br)=C1Br (centres unmarked) [Compound 2] | 87 | 0 | < 5 | 
14 | O=C1C(Cl)=C(Cl)C(O)N1CCc1ccccc1 (centres unmarked) [Compound 29, 3,4-dichloro-5-hydroxy-1-phenethyl-1H-pyrrol-2(5H)-one] | 74 | 57.6 ± 6.6 | 74 | GFP counts, MG1-eGFP (MG1-eGFP in 786-0 cells): increased GFP counts; GFP counts, HSV-N212eGFP [6]: increased GFP counts
15 | O=C1OCC(Cl)=C1Cl [Compound 5, 3,4-Dichloro-5H-furan-2-one] | 41 | 0 | < 5 | 
16 | CCC1=C(Cl)C(=O)N(Cc2ccccc2)C1O (centres unmarked) [Compound 18] | >360 |  |  | 
17 | O=C1C=CC(O)N1Cc1ccccc1 (centres unmarked) [Compound 16] | >360 | 98.2 ± 3.7 |  | 
18 | COC1C(Cl)=C(Cl)C(=O)N1Cc1ccccc1 (centres unmarked) [Compound 12] | 206 | 47.6 ± 1.4 | 118 | 
19 | O=C1OC(c2ccccc2)C(Cl)=C1Cl (centres unmarked) [Compound 1, 3,4-dichloro-5-phenyl-2,5-dihydrofuran-2-one, reference compound] | 79 | 0 | < 5 | enhancement of viral titers after pre-incubation of compound in media (VSVΔ51 in 786-0 cells): did not lead to robust enhancement of viral titers; growth of oncolytic HSV-1 expressing GFP [5]: increased growth; VSVΔ51-GFP titers / replication in tumor specimens [3]: enhanced; GFP counts, MG1-eGFP (MG1-eGFP in 786-0 cells): increased GFP counts; GFP counts, HSV-N212eGFP [6]: increased GFP counts; dose at which toxicity starts ([7]; ip): ≥ 10 mg/kg; increase of virus output (VSVΔ51): ≤ 1,000 fold; half-life (physchem [8]): 28.8 min
20 | CC1=C(C)C(O)N(Cc2ccccc2)C1=O (centres unmarked) [Compound 17] | >360 | 82.0 ± 10.2 |  | 
21 | O=C1NC(O)C(Cl)=C1Cl (centres unmarked) [Compound 9] | 148 | 0 | 117 | stability in the plasma assay [1]: remarkably improved stability
22 | O=C1C(Cl)=C(Cl)C(O)N1CCN1CCOCC1 (centres unmarked) [Compound 28, 3,4-dichloro-5-hydroxy-1-(2-morpholinoethyl)-1H-pyrrol-2(5H)-one] | 153 | 38.9 ± 5.2 | 96 | enhancement of VSVΔ51 output in tumor specimens [3]: ~100 fold; tumor-specific viral replication (luciferase activity, IVIS) [9]: significantly enhanced; GFP counts, MG1-eGFP (MG1-eGFP in 786-0 cells): increased GFP counts; GFP counts, HSV-N212eGFP [6]: increased GFP counts; impact on VSVΔ51 in normal tissue specimens [4]: little to no impact; tolerated dose relative to parent compound 1 [7]: > 10 ×; dose up to which well tolerated ([7]; ip): up to 100 mg/kg
23 | CC(=O)NCCSC1=C(Cl)C(=O)N(Cc2ccccc2)C1O (centres unmarked) [Compound 21] | >90 | 102.7 ± 10.8 |  | 
24 | O=C1c2ccccc2C(O)N1Cc1ccccc1 (centres unmarked) [Compound 20] | >360 | 102.9 ± 1.6 |  | 
25 | O=C1C(Cl)=C(Cl)CN1Cc1ccccc1 [Compound 11] | 332 | 42.5 ± 9.6 | 64 | 
